These results are taken from ChEMBL document CHEMBL1134698 (Bioorg Med Chem Lett, 2001).

Experiment [1] has as its target Norepinephrine transporter (Rattus norvegicus, UniProt Q9WTR4). Put plainly: Binding affinity was evaluated by measuring inhibiting the binding of [3H]nisoxetine to Norepinephrine transporter in rat brain tissue. The format is tissue-based.
For experiment [2], the species on record is Rattus norvegicus. Put plainly: Inhibition of [3H]dopamine reuptake in rat […]. The format is functional.
The target of experiment [3] is Sodium-dependent serotonin transporter (Rattus norvegicus, UniProt P31652). Put plainly: Binding affinity was evaluated by measuring inhibiting the binding of [3H]citalopram to Serotonin transporter in rat brain tissue. The format is tissue-based.
Experiment [4] has as its target Sodium-dependent dopamine transporter (Rattus norvegicus, UniProt P23977). Put plainly: Binding affinity was evaluated by measuring the inhibition of [3H]WIN-35428 binding to Dopamine transporter in rat brain tissue. Format: tissue-based.
Experiment [5] deals with Monoamine transporters; serotonin & dopamine (Homo sapiens) (UniProt P31645+Q01959). Put plainly: Selectivity was measured as SERT/DAT. The format is protein assay.
Sequence of Monoamine transporters; serotonin & dopamine (Homo sapiens) (P31645 whole entry, looked up): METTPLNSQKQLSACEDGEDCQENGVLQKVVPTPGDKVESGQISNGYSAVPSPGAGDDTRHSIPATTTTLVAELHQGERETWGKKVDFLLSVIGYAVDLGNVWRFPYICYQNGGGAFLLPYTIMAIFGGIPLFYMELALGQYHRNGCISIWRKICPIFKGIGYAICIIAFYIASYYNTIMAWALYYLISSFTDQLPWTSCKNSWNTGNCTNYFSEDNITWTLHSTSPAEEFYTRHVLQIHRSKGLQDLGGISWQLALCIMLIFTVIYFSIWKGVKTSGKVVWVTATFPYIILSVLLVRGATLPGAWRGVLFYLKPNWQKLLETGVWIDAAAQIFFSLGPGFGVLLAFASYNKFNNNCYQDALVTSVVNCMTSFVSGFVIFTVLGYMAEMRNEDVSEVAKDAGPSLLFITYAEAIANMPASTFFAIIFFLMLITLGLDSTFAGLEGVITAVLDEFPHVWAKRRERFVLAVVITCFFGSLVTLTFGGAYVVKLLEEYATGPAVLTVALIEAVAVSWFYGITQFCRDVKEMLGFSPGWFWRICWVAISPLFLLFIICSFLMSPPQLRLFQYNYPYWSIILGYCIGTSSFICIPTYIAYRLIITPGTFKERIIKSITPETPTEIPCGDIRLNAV
Sequence of Monoamine transporters; serotonin & dopamine (Homo sapiens) (Q01959 whole entry, looked up): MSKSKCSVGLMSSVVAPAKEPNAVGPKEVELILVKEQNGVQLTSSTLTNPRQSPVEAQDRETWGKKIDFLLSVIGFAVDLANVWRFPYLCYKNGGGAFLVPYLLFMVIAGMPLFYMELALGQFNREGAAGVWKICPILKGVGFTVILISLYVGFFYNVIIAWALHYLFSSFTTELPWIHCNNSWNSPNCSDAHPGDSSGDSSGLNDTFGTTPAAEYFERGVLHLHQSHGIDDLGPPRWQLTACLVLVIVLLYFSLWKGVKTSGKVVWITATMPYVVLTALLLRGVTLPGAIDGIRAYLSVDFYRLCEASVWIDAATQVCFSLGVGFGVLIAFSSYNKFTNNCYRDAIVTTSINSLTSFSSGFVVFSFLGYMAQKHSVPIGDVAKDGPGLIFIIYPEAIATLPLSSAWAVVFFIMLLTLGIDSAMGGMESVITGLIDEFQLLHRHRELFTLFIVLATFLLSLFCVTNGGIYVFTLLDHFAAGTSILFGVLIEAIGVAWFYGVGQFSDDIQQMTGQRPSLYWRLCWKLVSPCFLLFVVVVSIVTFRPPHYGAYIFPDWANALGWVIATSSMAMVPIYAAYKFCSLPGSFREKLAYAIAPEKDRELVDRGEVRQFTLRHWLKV

Sequence of Norepinephrine transporter (Q9WTR4 whole entry): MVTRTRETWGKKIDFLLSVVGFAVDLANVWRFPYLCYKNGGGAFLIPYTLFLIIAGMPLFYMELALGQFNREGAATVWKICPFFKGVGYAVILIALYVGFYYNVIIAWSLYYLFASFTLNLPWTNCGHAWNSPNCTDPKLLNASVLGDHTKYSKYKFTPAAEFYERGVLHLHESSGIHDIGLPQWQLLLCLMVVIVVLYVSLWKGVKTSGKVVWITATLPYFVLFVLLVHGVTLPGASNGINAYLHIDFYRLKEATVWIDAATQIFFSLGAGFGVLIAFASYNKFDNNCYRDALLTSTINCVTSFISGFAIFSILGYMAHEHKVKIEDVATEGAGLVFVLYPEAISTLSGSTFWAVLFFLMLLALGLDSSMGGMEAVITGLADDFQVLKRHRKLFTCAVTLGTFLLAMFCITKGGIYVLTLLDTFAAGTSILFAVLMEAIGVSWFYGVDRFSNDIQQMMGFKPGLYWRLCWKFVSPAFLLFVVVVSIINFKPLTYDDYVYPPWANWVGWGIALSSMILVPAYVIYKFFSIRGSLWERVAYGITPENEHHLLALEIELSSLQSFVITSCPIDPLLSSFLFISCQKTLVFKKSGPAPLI
Sequence of Sodium-dependent serotonin transporter (P31652 whole entry): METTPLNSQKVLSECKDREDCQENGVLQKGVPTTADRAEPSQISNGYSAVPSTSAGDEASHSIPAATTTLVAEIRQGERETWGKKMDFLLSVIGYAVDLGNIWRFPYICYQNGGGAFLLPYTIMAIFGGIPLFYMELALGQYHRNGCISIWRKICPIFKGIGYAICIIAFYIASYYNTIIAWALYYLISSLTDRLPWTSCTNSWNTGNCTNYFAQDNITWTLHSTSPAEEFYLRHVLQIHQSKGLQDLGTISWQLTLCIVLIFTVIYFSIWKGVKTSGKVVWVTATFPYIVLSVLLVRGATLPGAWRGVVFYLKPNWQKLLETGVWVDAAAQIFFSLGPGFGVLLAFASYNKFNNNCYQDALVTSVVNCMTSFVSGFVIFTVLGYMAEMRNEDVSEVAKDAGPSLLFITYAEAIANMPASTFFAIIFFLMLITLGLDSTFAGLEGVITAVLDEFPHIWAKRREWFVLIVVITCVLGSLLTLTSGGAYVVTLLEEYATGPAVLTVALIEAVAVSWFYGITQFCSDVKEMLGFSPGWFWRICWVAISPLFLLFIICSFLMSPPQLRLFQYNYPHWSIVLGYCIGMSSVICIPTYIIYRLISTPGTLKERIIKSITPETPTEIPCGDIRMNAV
Sequence of Sodium-dependent dopamine transporter (P23977 whole entry): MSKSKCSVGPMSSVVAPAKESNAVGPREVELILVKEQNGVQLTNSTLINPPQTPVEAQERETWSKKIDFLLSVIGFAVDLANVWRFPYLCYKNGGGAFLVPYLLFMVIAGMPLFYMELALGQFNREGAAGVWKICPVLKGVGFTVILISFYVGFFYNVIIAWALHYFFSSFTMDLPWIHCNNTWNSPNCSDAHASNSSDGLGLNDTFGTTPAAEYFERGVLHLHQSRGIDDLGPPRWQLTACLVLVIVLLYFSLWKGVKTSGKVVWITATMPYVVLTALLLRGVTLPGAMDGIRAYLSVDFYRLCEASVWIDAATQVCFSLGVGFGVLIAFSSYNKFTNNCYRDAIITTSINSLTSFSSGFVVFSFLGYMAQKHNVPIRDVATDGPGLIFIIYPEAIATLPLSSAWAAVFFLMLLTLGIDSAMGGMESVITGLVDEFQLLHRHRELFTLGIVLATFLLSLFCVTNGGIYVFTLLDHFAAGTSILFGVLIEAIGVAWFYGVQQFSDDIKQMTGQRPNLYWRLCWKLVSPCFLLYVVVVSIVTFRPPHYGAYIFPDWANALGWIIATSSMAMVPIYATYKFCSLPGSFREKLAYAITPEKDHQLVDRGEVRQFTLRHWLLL

Turning to `Fc1ccc(CNC2CCC(C(c3ccccc3)c3ccccc3)NC2)cc1` (cis isomer) [listing 1 of 2 here], the IC50 in experiment [1] was found to be 1350 nM; in experiment [2], 28.9 nM; in experiment [3], 2810 nM.
`O=C(NC1CCC(C(c2ccccc2)c2ccccc2)NC1)c1ccc(F)cc1` (racemic): the results for the IC50 in experiment [1], in experiment [4] and in experiment [3] were 5610 nM, 87 nM and 6210 nM, respectively. In experiment [5], this molecule yielded a Selectivity of 71.4.
On to `Fc1ccc(CNC2CCC(C(c3ccccc3)c3ccccc3)NC2)cc1` (stereo in doubt) [listing 1 of 2 here], for which the IC50 in experiment [1] was determined as 4470 nM; in experiment [4], 21.2 nM; in experiment [2], 106 nM; in experiment [3], 1330 nM.
In experiment [5], `Fc1ccc(CN2CCC(CNCC(c3ccccc3)c3ccccc3)CC2)cc1` showed a Selectivity of 6.9.
For `COC(=O)[C@@H]1C2CC[C@@H](C[C@@H]1OC(=O)c1ccccc1)N2C` (single isomer, unassigned) [COCAINE], the IC50 in experiment [2] (Rattus norvegicus) is 191 nM.
In experiment [5], `Fc1ccc(CNC2CCC(C(c3ccccc3)c3ccccc3)NC2)cc1` (cis isomer) [listing 2 of 2 here] had a Selectivity of 93.7.
Still for that read-out and setting: next, `Fc1ccc(CNC2CCC(C(c3ccccc3)c3ccccc3)NC2)cc1` (stereo in doubt) [listing 2 of 2 here]: 6.28.
